Source: patent publication US11390637B2, “Salts of antiviral phosphonate analogues and process for preparation thereof” (CIPLA LIMITED, priority 2017, dated 2022)

Key:
[1] = Hygroscopicity (statement, no method described); assay type: physicochemical; details: in words
[2] = Solubility in physiologically acceptable solvents (statement, no method described); details: in words
[3] = In-vitro intrinsic dissolution of 200 mg pellets of API without excipients; assay type: physicochemical; details: Table 8, 200 mg pellet, 0.01N HCl, 37° C., paddle 75 rpm
Method: A tableting mixture (200 mg) comprising solely salts of (((1-(6-amino-9H-purin-9-yl)propan-2-yloxy)methyl) (phenoxy) phosphoryloxy) methyl pivalate-prepared according to any one of the examples 1 to 10 (i.e. with no excipients) was prepared and compressed to a pellet using an automatic KBR press operating at a compression pressure of 2 tones for 2 minutes.
Similarly a tableting mixture (200 mg) comprising a solely TAF (i.e. with no excipients) was prepared and compressed to a pellet using an automatic KBR press operating at a compression pressure of 2 tones for 2 minutes.
A tableting mixture (200 mg) comprising solely TDF (i.e. with no excipients) was prepared and compressed to a pellet using an automatic KBR press operating at a compression pressure of 2 tones for 2 minutes.
In-vitro dissolution studies were performed on the 200 mg pellet in a LAB INDIA DISSO 2000.
The pellet was fixed in a PFTE holder, such that only the pellet surface came into contact with the dissolution medium. The PFTE loaded holder was placed in the dissolution vessel containing 900 ml of 0.1M of HCl having […] at 37±0.5° C. Two pellets were measured for each run of the design of the experiments. Stirring was performed with a paddle rotating at 75 rpm. […]
Dissolution Media: 0.01N HCl
Bath temperature: 37.5° C.
Sample Preparation: Pellets were prepared by pressing sample with 2 ton pressure for 2 min
Note: Aliquots were analysed on HPLC.
The concentration of (((1-(6-amino-9H-purin-9-yl)propan-2-yloxy)methyl) (phenoxy) phosphoryloxy) methyl pivalate was quantified by HPLC UV method at a maximum wavelength of 300 nm under the conditions as specified below:
Standard Preparation: 25 mg standard dissolved to 25 ml with dissolution medium. 5 ml of this solution diluted to 25 ml with dissolution medium. Further 5 ml of this solution was diluted to 10 ml with diluent.
Sample Preparation: 200 mg of Sample pellets were prepared and subjected to dissolution. 10 ml of Aliquot was removed from the dissolution basket at predetermined time intervals. 5 ml of these aliquot was diluted to 10 ml with Diluent.
200 mg of input API of fumarate salt of (((1-(6-amino-9H-purin-9-yl)propan-2-yloxy)methyl) (phenoxy) phosphoryloxy) methyl pivalate used for pellet preparation.
The percentage of (((1-(6-amino-9H-purin-9-yl)propan-2-yloxy)methyl) (phenoxy) phosphoryloxy) methyl pivalate (TD), Tenofovir Alafenamide (TAF) and Tenofovir Disoproxil (TDF) released from the respective fumarate salt tablet were plotted against time as shown in FIG. 19. The intrinsic dissolution rate was derived from the slope of this curve.
To measure the intrinsic dissolution of the Salts of (((1-(6-amino-9H-purin-9-yl)propan-2-yloxy)methyl) (phenoxy) phosphoryloxy) methyl pivalate, samples were measured to compare the influence of the different parameter settings. At appropriate time intervals, an automated sample collector removes aliquots from the dissolution medium for analysis. The time interval for sampling can vary, for example, from 5 to 120 minutes, depending on the properties of the drug and dissolution medium used. Suitable dissolution equipment for these operations includes LAB INDIA DISSO 2000. Bath temperature—37.5° C.
200 mg of input API of each fumarate, oxalate, phosphate, citrate, succinate and tartrate Salts of (((1-(6-amino-9H-purin-9-yl)propan-2-yloxy)methyl) (phenoxy) phosphoryloxy) methyl pivalate used for pellet preparation.
The percentage of (((1-(6-amino-9H-purin-9-yl)propan-2-yloxy)methyl) (phenoxy) phosphoryloxy) methyl pivalate released from the respective salts tablet were plotted against time as shown in FIG. 20. The intrinsic dissolution rate was derived from the slope of this curve.

With `CC(Cn1cnc2c(N)ncnc21)OCP(=O)(OCOC(=O)C(C)(C)C)Oc1ccccc1.O=C(O)CCC(=O)O` (stereo not shown) [Succinate, (((1-(6-amino-9H-purin-9-yl)propan-2-yloxy)methyl) (phenoxy)phosphoryloxy) methyl pivalate succinic acid salt] the hygroscopicity [1] was “not hygroscopic”, the “solubility in physiologically acceptable solvents” value [2] was “readily soluble” and the “% release of Compound (I) from the respective Salts” value (“% release of Compound (I)” below) ([3]; 5 min) was 3%. For the same molecule, the “% release of Compound (I)” value ([3]; 15 min) was 3%, the “% release of Compound (I)” value ([3]; 30 min) was 16% and the “% release of Compound (I)” value ([3]; 45 min) was 23%. For the same molecule, the “% release of Compound (I)” value ([3]; 60 min) was 30%, the “% release of Compound (I)” value ([3]; 90 min) was 45% and the “% release of Compound (I)” value ([3]; 120 min) was 59%. The “% release of Compound (I)” value ([3]; 150 min) was 74%, the “% release of Compound (I)” value ([3]; 180 min) was 85% and the “% release of Compound (I)” value ([3]; 210 min) was 90%. The “% release of Compound (I)” value ([3]; 240 min) was 92%.
